From patent publication US20230265151A1, “GIP/GLP1 CO-AGONIST COMPOUNDS” (priority 2020, published 2023)
Where two headings read alike, the source gives them in different places. *1 amine or outer side, *2 acyl side, *3 side chain or, on linkers, in order; H or OH if unused. Where a SMILES comes first, the peptide text is derived from it. Side-chain parts run from the residue outwards. [ ]: non-standard residue; d: D form. The star is where a group is joined. αMePhe(2-F) = C[C@](N)(Cc1ccccc1F)C(=O)O; γGlu = O=C(O)[C@H](CCC(=O)[*:2])N[*:1]; C14 diacid = O=C(O)CCCCCCCCCCCCC(=O)*; αMeY = C[C@](N)(Cc1ccc(O)cc1)C(=O)O; αMeL = CC(C)C[C@](C)(N)C(=O)O; Orn = NCCC[C@H](N)C(=O)O; AEEA = NCCOCCOCC(=O)O; Aib = CC(C)(N)C(=O)O

Experiments:
Type in all cases: cell-based
hGCGR = target: T1, hGCGR (Homo sapiens, UniProt P47871); test: Functional cAMP formation (HTRF) in HEK-293 clonal cells expressing hGCGR, 0.1% bovine casein, without or with 1.0% human serum albumin; details: read-out: hGCGR EC50, nM (SEM, n)
T1 construct: expressed in transfected cells
In short: (§1)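 Cells were stimulated with peptide for 30 min at 37° C, then intracellular cAMP was measured by competitive HTRF (665/620 nm ratio) and converted to nM using a cAMP standard curve. Relative EC50 and Emax came from four-parameter logistic fits of percent maximal response against peptide concentration.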

hGIPR = target: T2, hGIPR (Homo sapiens, UniProt P48546); test: Functional cAMP formation (HTRF) in HEK-293 clonal cells expressing hGIPR, 0.1% bovine casein, without or with 1.0% human serum albumin; details: 37° C.; for Emax: read-out: hGIPR Emax, % ± SEM; for EC50: cAMP, 0.1% bovine casein (no human serum albumin), geometric mean, read-out: hGIPR EC50, nM (SEM, n)
T2 construct: expressed in transfected cells
T2 sequence (P48546 22-466): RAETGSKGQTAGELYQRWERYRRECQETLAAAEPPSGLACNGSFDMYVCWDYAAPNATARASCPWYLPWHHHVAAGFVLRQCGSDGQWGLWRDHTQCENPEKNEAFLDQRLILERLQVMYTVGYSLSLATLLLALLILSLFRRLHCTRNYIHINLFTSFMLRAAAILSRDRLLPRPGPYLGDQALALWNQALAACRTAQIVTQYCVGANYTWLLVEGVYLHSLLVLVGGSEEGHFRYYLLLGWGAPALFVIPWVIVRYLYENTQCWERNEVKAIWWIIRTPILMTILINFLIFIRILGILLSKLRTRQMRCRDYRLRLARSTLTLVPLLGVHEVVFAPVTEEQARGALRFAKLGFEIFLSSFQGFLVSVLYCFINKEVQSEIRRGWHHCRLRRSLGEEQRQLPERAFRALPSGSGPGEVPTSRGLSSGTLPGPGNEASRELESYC
In short: as §1

hGLP-1R = hGLP-1R (Homo sapiens, UniProt P43220); test: Functional cAMP formation (HTRF) in HEK-293 clonal cells expressing hGLP-1R, 0.1% bovine casein, without or with 1.0% human serum albumin; design: expressed in transfected cells; details: for Emax: read-out: hGLP-1R Emax, % ± SEM; for EC50: cAMP, 0.1% bovine casein (no human serum albumin), geometric mean, read-out: hGLP-1R EC50, nM (SEM, n)
In short: as §1

[1] = cAMP, 37° C., 0.1% bovine casein (no human serum albumin), geometric mean
[2] = HEK293, cAMP, 37° C., 0.1% bovine casein, percent of maximal response to GLP-1(7-36)NH2, arithmetic mean
[3] = 0.1% bovine casein and 1.0% human serum albumin, 37° C., geometric mean
[4] = HEK293, 0.1% bovine casein and 1.0% human serum albumin, percent of maximal response to GIP(1-42)NH2
[5] = cAMP, incubated at 37° C., 0.1% bovine casein (no human serum albumin), geometric mean
[6] = HEK293, percent of maximal response to GIP(1-42)NH2, 0.1% bovine casein, arithmetic mean
[7] = HEK293, percent of maximal response to GLP-1(7-36)NH2, 37° C., 0.1% bovine casein, arithmetic mean

T1 sequence (P47871 26-477): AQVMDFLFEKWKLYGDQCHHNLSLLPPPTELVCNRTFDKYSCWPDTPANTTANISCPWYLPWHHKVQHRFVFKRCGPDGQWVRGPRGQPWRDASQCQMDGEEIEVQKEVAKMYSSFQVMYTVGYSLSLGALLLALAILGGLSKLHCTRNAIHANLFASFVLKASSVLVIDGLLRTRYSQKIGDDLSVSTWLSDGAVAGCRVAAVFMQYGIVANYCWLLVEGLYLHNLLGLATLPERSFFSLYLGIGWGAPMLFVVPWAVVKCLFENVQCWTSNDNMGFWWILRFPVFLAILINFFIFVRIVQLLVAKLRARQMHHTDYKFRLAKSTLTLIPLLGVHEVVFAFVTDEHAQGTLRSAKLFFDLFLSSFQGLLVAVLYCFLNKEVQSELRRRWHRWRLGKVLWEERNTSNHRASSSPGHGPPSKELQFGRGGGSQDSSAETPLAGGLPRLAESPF
Chain of hGLP-1R (P43220 24-463): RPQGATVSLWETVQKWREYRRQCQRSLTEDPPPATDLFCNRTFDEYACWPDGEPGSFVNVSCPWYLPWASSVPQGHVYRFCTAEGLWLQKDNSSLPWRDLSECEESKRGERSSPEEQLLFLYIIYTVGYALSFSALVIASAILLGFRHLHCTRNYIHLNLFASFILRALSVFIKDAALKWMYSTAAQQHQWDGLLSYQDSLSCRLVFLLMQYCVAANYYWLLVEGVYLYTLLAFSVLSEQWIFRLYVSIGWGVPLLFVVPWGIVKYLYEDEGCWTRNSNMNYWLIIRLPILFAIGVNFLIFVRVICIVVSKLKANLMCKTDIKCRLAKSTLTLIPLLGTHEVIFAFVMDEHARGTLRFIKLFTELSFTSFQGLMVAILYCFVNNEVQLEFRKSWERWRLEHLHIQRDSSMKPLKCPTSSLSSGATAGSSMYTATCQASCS

Structure (SMILES) | EC50 (hGCGR; [1]) | EC50 (hGCGR; cAMP, 37° C., 0.1% bovine casein and 1.0% human serum albumin, geometric mean (SEM, n)) | Emax (hGIPR; HEK293, cAMP, 0.1% bovine casein and 1.0% human serum albumin, percent of maximal response to GIP(1-42)NH2) | EC50 (hGIPR) | Emax (hGLP-1R; HEK293, cAMP, 37° C., 0.1% bovine casein and 1.0% human serum albumin, percent of maximal response to GLP-1(7-36)NH2) | Emax (hGLP-1R; [2]) | EC50 (hGLP-1R; 37° C.) | EC50 (hGCGR; [3]) | Emax (hGIPR; [4]) | Emax (hGIPR; HEK293, cAMP, 0.1% bovine casein, percent of maximal response to GIP(1-42)NH2, arithmetic mean) | Emax (hGLP-1R; HEK293, 0.1% bovine casein and 1.0% human serum albumin, 37° C., percent of maximal response to GLP-1(7-36)NH2) | EC50 (hGCGR; [5]) | Emax (hGIPR; [6]) | Emax (hGLP-1R; [7]) | EC50 (hGLP-1R; incubated at 37° C.)
CC[C@H](C)[C@H](NC(=O)[C@H](CCCN)NC(=O)[C@H](CC(=O)O)NC(=O)[C@H](CC(C)C)NC(=O)[C@](C)(CC(C)C)NC(=O)[C@@H](NC(=O)C(C)(C)NC(=O)[C@H](Cc1ccncc1)NC(=O)[C@H](CC(=O)O)NC(=O)[C@H](CO)NC(=O)[C@@H](NC(=O)[C@](C)(Cc1ccccc1F)NC(=O)[C@@H](NC(=O)CNC(=O)[C@H](CCC(=O)O)NC(=O)C(C)(C)NC(=O)[C@@H](N)Cc1ccc(O)cc1)[C@@H](C)O)[C@@H](C)O)[C@@H](C)CC)C(=O)N[C@@H](C)C(=O)N[C@@H](CCC(N)=O)C(=O)NC(C)(C)C(=O)N[C@@H](CCC(=O)O)C(=O)N[C@@H](Cc1ccccc1)C(=O)N[C@H](C(=O)N[C@@H](CCCCNC(=O)COCCOCCNC(=O)CC[C@H](NC(=O)CCCCCCCCCCCCC(=O)O)C(=O)O)C(=O)N[C@@](C)(Cc1ccc(O)cc1)C(=O)N[C@@H](CC(C)C)C(=O)N[C@H](C(=O)N[C@@H](CCCCNC(=O)COCCOCCNC(=O)CC[C@H](NC(=O)CCCCCCCCCCCCC(=O)O)C(=O)O)C(=O)NCC(=O)NCC(=O)N1CCC[C@H]1C(=O)N[C@@H](CO)C(=O)N[C@@H](CO)C(=O)NCC(=O)N[C@@H](C)C(=O)N1CCC[C@H]1C(=O)N1CCC[C@H]1C(=O)N1CCC[C@H]1C(=O)N[C@@H](CO)C(N)=O)[C@@H](C)CC)[C@@H](C)CC [Example 339] | > 10100 nM | > 10100 nM | 87.3% | 0.019 nM | 115% | 113% | 0.308 nM |  |  |  |  |  |  |  | 
CC[C@H](C)[C@H](NC(=O)[C@H](CCCN)NC(=O)[C@H](CC(=O)O)NC(=O)[C@H](CC(C)C)NC(=O)[C@](C)(CC(C)C)NC(=O)[C@@H](NC(=O)[C@H](CO)NC(=O)[C@H](Cc1ccc(OC)cc1)NC(=O)[C@H](CC(=O)O)NC(=O)[C@H](CO)NC(=O)[C@@H](NC(=O)[C@](C)(Cc1ccccc1F)NC(=O)[C@@H](NC(=O)CNC(=O)[C@H](CCC(=O)O)NC(=O)C(C)(C)NC(=O)[C@@H](N)Cc1ccc(O)cc1)[C@@H](C)O)[C@@H](C)O)[C@@H](C)CC)C(=O)N[C@@H](C)C(=O)N[C@@H](CCC(N)=O)C(=O)NC(C)(C)C(=O)N[C@@H](CCCCNC(=O)COCCOCCNC(=O)COCCOCCNC(=O)CC[C@H](NC(=O)CCCCCCCCCCCCC(=O)O)C(=O)O)C(=O)N[C@@H](Cc1ccccc1)C(=O)N[C@H](C(=O)N[C@H](CCC(=O)O)C(=O)N[C@@](C)(Cc1ccc(O)cc1)C(=O)N[C@@H](CC(C)C)C(=O)N[C@H](C(=O)N[C@@H](CCC(=O)O)C(=O)NCC(=O)NCC(=O)N1CCC[C@H]1C(=O)N[C@@H](CO)C(=O)N[C@@H](CO)C(=O)NCC(=O)N[C@@H](C)C(=O)N1CCC[C@H]1C(=O)N1CCC[C@H]1C(=O)N1CCC[C@H]1C(=O)N[C@@H](CO)C(=O)N[C@@H](CCCCNC(=O)COCCOCCNC(=O)COCCOCCNC(=O)CC[C@H](NC(=O)CCCCCCCCCCCCC(=O)O)C(=O)O)C(N)=O)[C@@H](C)CC)[C@@H](C)CC [Example 264] (H-Y[Aib]EGT[αMePhe(2-F)]TSDY(Me)SI[αMeL]LD[Orn]IAQ[Aib]K([AEEA-AEEA-γGlu-C14 diacid])FI[dE][αMeY]LIEGGPSSGAPPPSK([AEEA-AEEA-γGlu-C14 diacid])-NH2) | > 9950 nM |  |  | 0.0208 nM |  | 113% | 0.413 nM | > 9950 nM | 84.4% | 114% | 105% |  |  |  | 
CC[C@H](C)[C@H](NC(=O)[C@H](CC(C)C)NC(=O)[C@](C)(Cc1ccc(O)cc1)NC(=O)[C@@H](CCC(=O)O)NC(=O)[C@@H](NC(=O)[C@H](Cc1ccccc1)NC(=O)[C@H](CCC(=O)O)NC(=O)C(C)(C)NC(=O)[C@H](CCC(N)=O)NC(=O)[C@H](C)NC(=O)[C@H](CCCCNC(=O)[C@@H](N)CCCCNC(=O)[C@@H](N)CCCCNC(=O)CC[C@H](NC(=O)CCCCCCCCCCCCC(=O)O)C(=O)O)NC(=O)[C@H](CCCN)NC(=O)[C@H](CC(=O)O)NC(=O)[C@H](CC(C)C)NC(=O)[C@](C)(CC(C)C)NC(=O)[C@@H](NC(=O)C(C)(C)NC(=O)[C@@H](NC(=O)[C@H](CC(=O)O)NC(=O)[C@H](CO)NC(=O)[C@@H](NC(=O)[C@](C)(Cc1ccccc1F)NC(=O)[C@@H](NC(=O)CNC(=O)[C@H](CCC(=O)O)NC(=O)C(C)(C)NC(=O)[C@@H](N)Cc1ccc(O)cc1)[C@@H](C)O)[C@@H](C)O)C(C)C)[C@@H](C)CC)[C@@H](C)CC)C(=O)N[C@@H](CCC(=O)O)C(=O)NCC(=O)NCC(=O)N[C@@H](CCCCNC(=O)[C@@H](N)CCCCNC(=O)[C@@H](N)CCCCNC(=O)CC[C@H](NC(=O)CCCCCCCCCCCCC(=O)O)C(=O)O)C(=O)N[C@@H](CO)C(=O)N[C@@H](CO)C(=O)NCC(=O)N[C@@H](C)C(=O)N1CCC[C@H]1C(=O)N1CCC[C@H]1C(=O)N1CCC[C@H]1C(=O)N[C@@H](CO)C(N)=O [Example 165] |  |  |  |  |  |  |  |  |  |  |  | > 9950 nM | 96.1% | 94.3% | 0.291 nM
CC[C@H](C)[C@H](NC(=O)[C@H](CC(C)C)NC(=O)[C@](C)(Cc1ccc(O)cc1)NC(=O)[C@@H](CCC(=O)O)NC(=O)[C@@H](NC(=O)[C@H](Cc1ccccc1)NC(=O)[C@H](CCC(=O)O)NC(=O)C(C)(C)NC(=O)[C@H](CCC(N)=O)NC(=O)[C@H](C)NC(=O)[C@H](CCCCNC(=O)COCCOCCNC(=O)COCCOCCNC(=O)CC[C@H](NC(=O)CCCCCCCCCCCCC(=O)O)C(=O)O)NC(=O)[C@H](CCCN)NC(=O)[C@H](CC(=O)O)NC(=O)[C@H](CC(C)C)NC(=O)[C@](C)(CC(C)C)NC(=O)[C@@H](NC(=O)[C@](C)(CO)NC(=O)[C@H](Cc1ccncc1)NC(=O)[C@H](CC(=O)O)NC(=O)[C@H](CO)NC(=O)[C@@H](NC(=O)[C@](C)(Cc1ccccc1F)NC(=O)[C@@H](NC(=O)CNC(=O)[C@H](CCC(=O)O)NC(=O)C(C)(C)NC(=O)[C@@H](N)Cc1ccc(O)cc1)[C@@H](C)O)[C@@H](C)O)[C@@H](C)CC)[C@@H](C)CC)C(=O)N[C@@H](CCC(=O)O)C(=O)NCC(=O)NCC(=O)N[C@@H](CCCCNC(=O)COCCOCCNC(=O)COCCOCCNC(=O)CC[C@H](NC(=O)CCCCCCCCCCCCC(=O)O)C(=O)O)C(=O)N[C@@H](CO)C(=O)N[C@@H](CO)C(=O)NCC(=O)N[C@@H](C)C(=O)N1CCC[C@H]1C(=O)N1CCC[C@H]1C(=O)N1CCC[C@H]1C(=O)N[C@@H](CO)C(N)=O [Example 213] |  |  |  |  |  |  |  | > 9950 nM | 95.6% |  |  | > 9950 nM | 92% | 94.8% | 
